Columns and labels:
[1] = test system: Acute lymphoblastic leukemia cells (RS4;11); experiment: Cell Titer Glo cell viability / growth inhibition in RS4;11; format: cell-based; conditions: for IC50: Homo sapiens, RS4-11, read-out: all cell killing CTG IC50 in RS4;11
Procedure: (§1) In vitro cell viability in all cells lines, at optimized growth conditions, was assessed using Cell Titer Glo (Promega) assay performed over 24 h-96 h compound treatments. Compound treatments were carried out using a 11-point dose response, 3-fold serial dilutions stating at a maximum concentration of 1 uM. IC50, IC90 values were calculated by curve fitting using appropriate Nonlinear Regression fit in GraphPad Prism. Cell cycle arrest and/or apoptosis in response to single agent or combination treatment was assessed using flow cytometry analysis on cells treated for 24 h.
Acute lymphoblastic leukemia cells (RS4;11) were treated for 24 h with Compound A or small molecule inhibitor DS-3032 in a 3-fold serial dilution dose-response at maximum concentration of 1 mM. Growth inhibition was quantified using Cell titer glo (Promega) assay at 24 h continuous treatment.

CTG-2240 AML PDX = experiment: AML patient-derived xenograft model CTG-2240; format: in vivo, mouse; conditions: 1 mg/kg, Q3W, IV
Procedure: (§2) AML patient cells from leukapheresis were intravenously (IV) injected and established in immunocompromised host strain mice. Surrogate animals were used to determine the level of engraftment targeting a threshold of ˜20% huCD45+ cells in BM. Mice were randomized on study and treatment was initiated. Vehicle and Compound A, 1 mg/kg were administered IV, every three weeks for six weeks (total of two doses of Compound A). At study end, whole blood, bone marrow and spleen were assessed by flow cytometry.

[2] = test system: hCD45+ cells in bone marrow and AML blasts; experiment: AML PDX models, flow cytometry at study end; format: in vivo, mouse; conditions: 1 mg/kg, Q3W
Procedure: as §2

[3] = test system: Acute lymphoblastic leukemia cells (RS4;11); experiment: Washout apoptosis assay, Caspase Glo 3/7 in RS4;11; format: cell-based; conditions: RS4;11, 4 h exposure followed by washout, measured at 24 or 48 h post treatment
Procedure: For washout assay, cells were treated for 4-24 h at serial dilutions indicated above. At the end of treatment times (4 h, 8 h, 16 h and 24 h) cells were washed twice with complete media, plated in 384-well plates and incubated for 24-72 h. Cells were assessed for viability using Cell Titer Glo (Promega) assay and apoptosis using Caspase Glo 3/7 (Promega) assay at 24 h, 48 h and 72 h post the start of treatment.
Acute lymphoblastic leukemia cells (RS4;11) were treated for 4 h (8 h, 16 h, 24 h—data not shown) with Compound A or small molecule inhibitor DS-3032 at indicated concentrations. Apoptotic activity was quantified as increase in Caspase activity measured using Caspase Glo® 3/7 assay system (Promega).

disseminated AML model = experiment: Disseminated AML xenograft model, survival; format: in vivo, mouse; conditions: weekly administration, compared to vehicle treated animals
Procedure: Female mice, 5-8 wks old mice NOD/SCID mice from SPF (Beijing) experimental Animal Science Technology Co., ltd. Animals were received, housed and observed for seven days prior to study initiation. Each mouse will be with tumor cells in 0.1 ml PBS via tail-vein injection. Groups and treatments were started 4 days post-inoculation. Based on the body weight, mice were randomly assigned to respective groups using a computer-generated randomization procedure. Compound A was formulated in 20% HP-β-CD at concentrations up to 0.1 mg/mL and administered intravenously to tumor bearing animals.
In this model, Compound A exposures correlated with induction of apoptotic p53 target genes and tumor growth inhibition.

MOLM-13 cell line = experiment: Combination treatment in MOLM-13 cell line, apoptosis and cell killing; format: cell-based; conditions: combination with venetoclax and midostaurin
Procedure: as §1

p53 = p53 stabilization, p53 MSD assay in RS4;11 cells; format: cell-based; conditions: RS4;11, 2 h treatment
Procedure: Acute lymphoblastic leukemia cells (RS4;11) were treated for 2 h (4 h, 8 h and 24 h—data not shown) with Compound A or small molecule inhibitor DS-3032 in a 3-fold serial dilution dose-response at maximum concentration of 1 mM. p53 levels were quantified using p53 MSD assay (Total p53 Whole Cell Lysate Kit, MSD, K150DBD-2).

[4] = test system: OCI-LY10 p53^WT ABC-subtype DLBCL xenograft; experiment: OCI-LY10 DLBCL xenograft model; format: in vivo
[5] = molecular target: T1, C-terminally HiBiT-tagged MDM2 (Homo sapiens, UniProt Q00987); experiment: MDM2 degradation, HiBiT signal (Nano-Glo HiBiT lytic detection) in 293T cells; format: cell-based
T1 construct: expressed in transfected cells
T1 sequence (Q00987 whole entry): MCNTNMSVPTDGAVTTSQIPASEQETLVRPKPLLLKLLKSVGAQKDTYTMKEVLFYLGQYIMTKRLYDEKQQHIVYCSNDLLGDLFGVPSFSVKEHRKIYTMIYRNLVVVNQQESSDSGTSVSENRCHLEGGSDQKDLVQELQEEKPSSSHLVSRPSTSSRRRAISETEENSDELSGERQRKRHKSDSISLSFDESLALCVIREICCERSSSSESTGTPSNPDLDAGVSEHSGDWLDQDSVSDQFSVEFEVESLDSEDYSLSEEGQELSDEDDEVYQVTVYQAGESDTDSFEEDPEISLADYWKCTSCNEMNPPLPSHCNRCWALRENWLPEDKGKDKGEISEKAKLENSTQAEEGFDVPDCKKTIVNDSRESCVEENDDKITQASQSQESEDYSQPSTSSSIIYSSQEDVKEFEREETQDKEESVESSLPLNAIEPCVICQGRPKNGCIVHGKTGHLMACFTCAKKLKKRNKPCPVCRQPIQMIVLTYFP
Procedure: 293T cells stably expressing C-terminally HiBiT-tagged MDM2 were treated for 4 h with Compound A or small molecule inhibitor DS-3032 in a 3-fold serial dilution dose-response at maximum concentration of 1 mM. Degradation potency was measured as reduction in HiBiT signal, quantified using Nano-Glo® HiBiT lytic detection system (Promega).

[6] = test system: CTG-2227 AML patient-derived xenograft (PDX); experiment: AML patient-derived xenograft model CTG-2227; format: in vivo, mouse; conditions: 1 mg/kg, Q3W, IV
Procedure: as §2

MOLM-13 xenograft = MOLM-13 xenograft model, combination with standard of care; format: in vivo
[7] = test system: multiple heme indications (AML, T cell lymphomas, mantle cell lymphoma, DLBCL); experiment: In vitro activity across heme indications; format: cell-based; conditions: mantle cell lymphoma, and DLBCL most sensitive
Procedure: as §1

RS4;11 tumor = experiment: RS4;11 subcutaneous mouse xenograft, tumor volume; format: in vivo; conditions: single intravenous bolus, 1, 3, and 10 mg/kg; doses as low as 1 mg/kg
Procedure: Female mice, 5-8 wks old mice NOD/SCID mice from SPF (Beijing) experimental Animal Science Technology Co., ltd. Animals were received, housed and observed for seven days prior to study initiation. Each mouse were inoculated subcutaneously with RS4;11 tumor cells (1×107) in 0.1 ml of RPMI1640 with 10% FBS for tumor development. Groups and treatments were started when the mean tumor volume reached about 100 mm3 for study. Based on the tumor volume, mice were randomly assigned to respective groups using a computer-generated randomization procedure. Compound A was formulated in 20% HP-β-CD at concentrations up to 0.1 mg/mL and administered intravenously to tumor bearing animals. Tumor size was measured twice to three times weekly in three dimensions using a caliper. The measurement of tumor size were conducted twice weekly with a caliper and recorded. The tumor volume (mm^3) was estimated using the formula: TV=a×b2/2, where “a” and “b” are long and short diameters of a tumor, respectively.
(§3) Compound A was administered as a single intravenous bolus in RS411 tumor bearing mice at doses of 1, 3, and 10 mg/kg. […] Change in the levels of protein markers in degrader treated xenografts was quantified relative vehicle treated xenografts using western blot assay. Clinical equivalent doses of SMIs had no significant in vivo impact in these xenograft models.

[8] = test system: TMD8 p53^MUT ABC-subtype DLBCL xenograft; experiment: TMD8 DLBCL xenograft model; format: in vivo
CTG-2700 AML PDX = experiment: AML patient-derived xenograft model CTG-2700; format: in vivo, mouse; conditions: 1 mg/kg, Q3W, IV
Procedure: as §2

p53, p21, and PUMA = experiment: Protein markers in RS4;11 tumor xenografts, western blot; format: in vivo, mouse; conditions: 1 mg/kg
Procedure: At various times tumor bearing animals were sacrificed and plasma and tumors collected for pharmacokinetic and pharmacodynamic determinations.
as §3

[9] = test system: panel of solid and hematological tumor cell lines; experiment: Cell growth inhibition across a tumor cell line panel; format: cell-based
Procedure: as §1

## CC(C)[C@@H](CS(=O)(=O)C(C)C)N1C(=O)[C@@](C)(CC(=O)O)C[C@H](c2cccc(Cl)c2)[C@H]1c1ccc(Cl)cc1 [AMG-232]
[1]
  IC50: 280 nM

## COc1cc(C(=O)O)ccc1NC(=O)[C@@H]1N[C@@H](CC(C)(C)C)[C@](C#N)(c2ccc(Cl)cc2F)[C@H]1c1cccc(Cl)c1F [RG7388]
[1]
  IC50: 220 nM

## CC1(C)CCC2(CC1)N[C@@H](C(=O)N[C@@H]1CC[C@@H](C(N)=O)OC1)[C@H](c1ccnc(Cl)c1F)[C@]21C(=O)Nc2cc(Cl)ccc21 [DS-3032]
[1]
  IC50: 67 nM

## Cn1c(=O)n(C2CCC(=O)NC2=O)c2ccc(C3CCN(C(=O)[C@H]4CC[C@H](NC(=O)[C@@H]5NC6(CCCCC6)[C@@]6(C(=O)Nc7cc(Cl)ccc76)[C@H]5c5cccc(Cl)c5F)CC4)CC3)cc21 (stereo partly drawn) [Compound A, (3′R,4'S,5′R)-6″-chloro-4′-(3-chloro-2-fluorophenyl)-N-((1R,4R)-4-(4-(1-(2,6-dioxopiperidin-3-yl)-3-methyl-2-oxo-2,3-dihydro-1H-benzo[d]imidazol-5-yl)piperidine-1-carbonyl)cyclohexyl)-2″-oxodispiro[cyclohexane-1,2′-pyrrolidine-3′,3″-indoline]-5′-carboxamide]
CTG-2240 AML PDX
  response in CTG-2240 AML PDX model: partial responses
[2]
  hCD45+ cells in bone marrow and AML blasts: significantly reduces
[3]
  induction of apoptosis (Caspase activity): sufficient to potently induce apoptosis
Disseminated AML model
  survival: significantly prolonged the survival
MOLM-13 cell line
  induction of apoptosis and cell killing in combination: enhances induction of apoptosis and cell killing
p53
  stabilization of p53: strong stabilization of p53
[4]
  activity in OCI-LY10 xenograft model: highly active
[5]; 4 h treatment
  degradation of MDM2: rapid and potent degradation of MDM2
[5]; FIG. 1, HiBiT-tagged MDM2, 4 h treatment
  degrades MDM2 at: 0.4 nM
[6]
  response in CTG-2227 AML PDX model: tumor regression
MOLM-13 xenograft; single dose in combination with daily dosing of venetoclax
  anti-tumor activity in MOLM-13 xenograft model: sustained tumor regression
[7]
  in vitro activity across heme indications: active across multiple heme indications
RS4;11 tumor
  anti-tumor activity: sustained tumor regression
[8]
  activity in TMD8 xenograft model: not
CTG-2700 AML PDX
  response in CTG-2700 AML PDX model: partial responses
p53, p21, and PUMA
  time of peak of protein marker upregulation post-dose: 6 h
p53, p21, and PUMA; relative to vehicle treated xenografts
  upregulation of protein markers p53, p21, and PUMA in tumor xenografts: marked upregulation
[9]
  stronger cell growth inhibition, compared to SMIs: > 200 fold
[1]
  IC50: 0.3 nM
[1]; RS4;11, 24 h continuous treatment, compared with SMI
  cancer cell growth inhibition: potently inhibits cancer cell growth

## Nc1ccn([C@@H]2O[C@H](CO)[C@@H](O)[C@@H]2O)c(=O)n1 [cytarabine]
MOLM-13 xenograft; combination of cytarabine and venetoclax
  anti-tumor activity in MOLM-13 xenograft model: no significant anti-tumor activity
MOLM-13 xenograft; cytarabine alone
  anti-tumor activity in MOLM-13 xenograft model: no significant anti-tumor activity

## CC(C)(C)C[C@@H]1N[C@@H](C(=O)N[C@H]2CC[C@H](O)CC2)[C@H](c2cccc(Cl)c2F)[C@]12C(=O)Nc1cc(Cl)ccc12 [SAR405838]
[1]
  IC50: 620 nM

## COc1ncc(-c2nc3c(n2C(C)C)[C@H](c2ccc(Cl)cc2)N(c2cc(Cl)cn(C)c2=O)C3=O)c(OC)n1 [HDM201]
[1]
  IC50: 163 nM
